Experimental data: the supplement of paper PMC6045584
± gives the standard deviation of the averaged measurements.

These test systems were tested with Cc1ccc(-c2cc(C(F)(F)F)nn2-c2ccc(S(N)(=O)=O)cc2)cc1 [CELECOXIB] (assay: surviving fraction relative to DMSO-only wells; higher = less growth inhibition). Details: 1000 nM; exposure time: 5 days.
How it was run: (§1)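 Lines were retained only if, across three screens, replicate Pearson r was >0.7 and median Z' was >0.3. Viability was measured as CellTiter-Glo luminescence and reported as surviving fraction relative to the median of DMSO-only wells. Readings followed 10 minutes at room temperature, after log-phase tumour cells seeded at 250–500 per well in 384-well plates had been exposed, from 24 hours after seeding, continuously for five days to inhibitors at 0.5, 1, 5, 10, 50, 100, 500 and 1000 nM.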
KPD BONE showed a surviving fraction of 0.934 ± 0.043. MCF7 BREAST gave a surviving fraction of 1.01 ± 0.033. Work on PCI30 HEADNECK yielded a surviving fraction of 0.928 ± 0.038.

The test systems below were run with C[C@]1(O)C[C@@H](c2nc(-c3ccc4ccc(-c5ccccc5)nc4c3)c3c(N)nccn32)C1 [OSI-906] in the same assay as above. Details: 0.5 nM; exposure time: 5 days.
How it was run: as §1
For HCT15 LARGE INTESTINE, the surviving fraction was 0.829 ± 0.073. HELA CERVIX gave a surviving fraction of 0.971 ± 0.033. With KPD BONE the surviving fraction was 0.958 ± 0.037. MCF7 BREAST gave a surviving fraction of 0.832 ± 0.042. PCI30 HEADNECK gave a surviving fraction of 0.89 ± 0.027.

Same assay, conditions: 1 nM; exposure time: 5 days
HCT15 LARGE INTESTINE showed a surviving fraction of 0.82 ± 0.048. For HELA CERVIX, the surviving fraction was 0.981 ± 0.054. KPD BONE was tested, and the surviving fraction was 0.978 ± 0.051. Test System MCF7 BREAST has a surviving fraction of 0.85 ± 0.044. PCI30 HEADNECK showed a surviving fraction of 0.947 ± 0.022.

Same assay, conditions: 5 nM; exposure time: 5 days
HCT15 LARGE INTESTINE gave a surviving fraction of 0.811 ± 0.069. HELA CERVIX showed a surviving fraction of 0.955 ± 0.069. With KPD BONE the surviving fraction was 0.9457 ± 0.0072. MCF7 BREAST showed a surviving fraction of 0.816 ± 0.022. In the case of PCI30 HEADNECK, the surviving fraction is reported as 0.955 ± 0.076.

Same assay, conditions: 10 nM; exposure time: 5 days
In the case of HCT15 LARGE INTESTINE, the surviving fraction is reported as 0.871 ± 0.086. Work on HELA CERVIX yielded a surviving fraction of 0.88 ± 0.09. With KPD BONE the surviving fraction was 0.952 ± 0.097. With MCF7 BREAST the surviving fraction was 0.825 ± 0.056. For PCI30 HEADNECK, the surviving fraction was 1.05 ± 0.074.

Same assay, conditions: 50 nM; exposure time: 5 days
HCT15 LARGE INTESTINE gave a surviving fraction of 0.929 ± 0.061. In the case of HELA CERVIX, the surviving fraction is reported as 1.03 ± 0.035. KPD BONE gave a surviving fraction of 0.796 ± 0.018. Test System MCF7 BREAST has a surviving fraction of 0.831 ± 0.018. PCI30 HEADNECK was tested, and the surviving fraction was 1.07 ± 0.051.

Same assay, conditions: 100 nM; exposure time: 5 days
Work on HCT15 LARGE INTESTINE yielded a surviving fraction of 0.918 ± 0.023. HELA CERVIX showed a surviving fraction of 1.07 ± 0.036. For KPD BONE, the surviving fraction was 0.557 ± 0.021. MCF7 BREAST was tested, and the surviving fraction was 0.847 ± 0.029. Work on PCI30 HEADNECK yielded a surviving fraction of 1.01 ± 0.077.

Same assay, conditions: 500 nM; exposure time: 5 days
HCT15 LARGE INTESTINE was tested, and the surviving fraction was 0.911 ± 0.073. With HELA CERVIX the surviving fraction was 1 ± 0.081. KPD BONE was tested, and the surviving fraction was 0.112 ± 0.0049. MCF7 BREAST showed a surviving fraction of 0.722 ± 0.036. Test System PCI30 HEADNECK has a surviving fraction of 0.939 ± 0.075.

Same assay, conditions: 1000 nM; exposure time: 5 days
For HCT15 LARGE INTESTINE, the surviving fraction was 0.921 ± 0.04. HELA CERVIX gave a surviving fraction of 1.01 ± 0.048. Test System KPD BONE has a surviving fraction of 0.081 ± 0.019. MCF7 BREAST gave a surviving fraction of 0.661 ± 0.013. PCI30 HEADNECK showed a surviving fraction of 0.931 ± 0.033.

What follows are test systems tested with CC(=O)O[C@H]1C(=O)[C@@]2(C)[C@H]([C@H](OC(=O)c3ccccc3)[C@]3(O)C[C@H](OC(=O)[C@H](O)[C@@H](NC(=O)c4ccccc4)c4ccccc4)C(C)=C1C3(C)C)[C@]1(OC(C)=O)CO[C@@H]1C[C@@H]2O [PACLITAXEL] in the same assay as above. Details: 0.5 nM; exposure time: 5 days.
How it was run: as §1
With HCT15 LARGE INTESTINE the surviving fraction was 1.01 ± 0.012. Test System HELA CERVIX has a surviving fraction of 1.04 ± 0.037. KPD BONE showed a surviving fraction of 0.909 ± 0.093. With MCF7 BREAST the surviving fraction was 0.863 ± 0.077. PCI30 HEADNECK was tested, and the surviving fraction was 0.721 ± 0.06.

Same assay, conditions: 1 nM; exposure time: 5 days
HCT15 LARGE INTESTINE was tested, and the surviving fraction was 1.07 ± 0.024. HELA CERVIX was tested, and the surviving fraction was 1.05 ± 0.1. KPD BONE gave a surviving fraction of 0.889 ± 0.062. With MCF7 BREAST the surviving fraction was 0.714 ± 0.016. For PCI30 HEADNECK, the surviving fraction was 0.355 ± 0.044.

Same assay, conditions: 5 nM; exposure time: 5 days
HCT15 LARGE INTESTINE gave a surviving fraction of 0.95 ± 0.077. HELA CERVIX gave a surviving fraction of 0.0503 ± 0.001. Test System KPD BONE has a surviving fraction of 0.387 ± 0.029. With MCF7 BREAST the surviving fraction was 0.432 ± 0.02. PCI30 HEADNECK was tested, and the surviving fraction was 0.199 ± 0.022.

Same assay, conditions: 10 nM; exposure time: 5 days
Work on HCT15 LARGE INTESTINE yielded a surviving fraction of 0.861 ± 0.074. With HELA CERVIX the surviving fraction was 0.0423 ± 0.0041. Work on KPD BONE yielded a surviving fraction of 0.365 ± 0.044. With MCF7 BREAST the surviving fraction was 0.383 ± 0.0065. In the case of PCI30 HEADNECK, the surviving fraction is reported as 0.114 ± 0.03.

Same assay, conditions: 50 nM; exposure time: 5 days
Test System HCT15 LARGE INTESTINE has a surviving fraction of 0.255 ± 0.064. HELA CERVIX gave a surviving fraction of 0.0277 ± 0.0016. With KPD BONE the surviving fraction was 0.338 ± 0.015. In the case of MCF7 BREAST, the surviving fraction is reported as 0.372 ± 0.01. Work on PCI30 HEADNECK yielded a surviving fraction of 0.0853 ± 0.011.

Same assay, conditions: 100 nM; exposure time: 5 days
With HCT15 LARGE INTESTINE the surviving fraction was 0.0833 ± 0.0076. HELA CERVIX gave a surviving fraction of 0.0237 ± 0.0039. Test System KPD BONE has a surviving fraction of 0.315 ± 0.025. With MCF7 BREAST the surviving fraction was 0.356 ± 0.0077. Test System PCI30 HEADNECK has a surviving fraction of 0.0737 ± 0.016.

Same assay, conditions: 500 nM; exposure time: 5 days
HCT15 LARGE INTESTINE was tested, and the surviving fraction was 0.04 ± 0.0036. HELA CERVIX was tested, and the surviving fraction was 0.017 ± 0.0015. In the case of KPD BONE, the surviving fraction is reported as 0.327 ± 0.011. Work on MCF7 BREAST yielded a surviving fraction of 0.333 ± 0.013. In the case of PCI30 HEADNECK, the surviving fraction is reported as 0.0753 ± 0.016.

Same assay, conditions: 1000 nM; exposure time: 5 days
HCT15 LARGE INTESTINE showed a surviving fraction of 0.0453 ± 0.0032. In the case of HELA CERVIX, the surviving fraction is reported as 0.0247 ± 0.00076. With KPD BONE the surviving fraction was 0.313 ± 0.026. With MCF7 BREAST the surviving fraction was 0.326 ± 0.012. With PCI30 HEADNECK the surviving fraction was 0.071 ± 0.0061.

These test systems were tested with CC(=O)NCC(=O)N1[C@@H]2CC[C@H]1c1ccc(Nc3ncc(C(F)(F)F)c(NC4CCC4)n3)cc12 in the same assay as above. Details: 0.5 nM; exposure time: 5 days.
How it was run: as §1
Test System HCT15 LARGE INTESTINE has a surviving fraction of 0.969 ± 0.062. For HELA CERVIX, the surviving fraction was 0.991 ± 0.05. In the case of KPD BONE, the surviving fraction is reported as 0.977 ± 0.019. In the case of MCF7 BREAST, the surviving fraction is reported as 0.864 ± 0.018. PCI30 HEADNECK was tested, and the surviving fraction was 0.891 ± 0.04.

Same assay, conditions: 1 nM; exposure time: 5 days
Work on HCT15 LARGE INTESTINE yielded a surviving fraction of 0.9727 ± 0.009. With HELA CERVIX the surviving fraction was 1.02 ± 0.092. In the case of KPD BONE, the surviving fraction is reported as 0.987 ± 0.026. With MCF7 BREAST the surviving fraction was 0.858 ± 0.028. Work on PCI30 HEADNECK yielded a surviving fraction of 0.873 ± 0.077.

Same assay, conditions: 5 nM; exposure time: 5 days
HCT15 LARGE INTESTINE was tested, and the surviving fraction was 0.971 ± 0.037. HELA CERVIX showed a surviving fraction of 0.977 ± 0.051. For KPD BONE, the surviving fraction was 0.991 ± 0.07. For MCF7 BREAST, the surviving fraction was 0.808 ± 0.034. For PCI30 HEADNECK, the surviving fraction was 1.01 ± 0.067.

Same assay, conditions: 10 nM; exposure time: 5 days
With HCT15 LARGE INTESTINE the surviving fraction was 0.98 ± 0.036. In the case of HELA CERVIX, the surviving fraction is reported as 0.956 ± 0.048. KPD BONE was tested, and the surviving fraction was 1.04 ± 0.093.
